Holding throughout (experiment): relative viability (nuclei count vs DMSO), 5 days (fraction); higher = more cells survive
Compound in test [1]: CS(=O)(=O)c1ccc(C(=O)Nc2ccc(Cl)c(-c3ccccn3)c2)c(Cl)c1 [Vismodegib] + CS(=O)(=O)N1CCN(Cc2cc3nc(-c4cccc5[nH]ncc45)nc(N4CCOCC4)c3s2)CC1 [Pictilisib] (partner 1 µM)
The procedure, abridged:
(§1)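 One day after seeding in 1536-well plates, lung cancer cell lines were dosed by pin tool. Dosing was either single-drug or a fixed anchor-drug dose plus five library-drug doses (not always all listed) in √10 steps. After 5 days, nuclei were stained in one fix-and-stain step and counted on 4× images, and relative viability is the nuclei count of treated wells over that of vehicle wells, given as the median of duplicate plates.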

Compound in test [2]: CS(=O)(=O)c1ccc(-c2cnc(N)c(C(=O)Nc3ccccc3)n2)cc1 [VE-821] + COc1cccc2cc(-c3nc([C@H]4CC[C@H](C(=O)O)CC4)n4ncnc(N)c34)[nH]c12 [OSI-027] (partner 0.5 µM)
Summed up: as §1

Compound in test [3]: CS(=O)(=O)c1ccc(-c2cnc(N)c(C(=O)Nc3ccccc3)n2)cc1 [VE-821] + Nc1nc2[nH]cc(CCc3ccc(C(=O)N[C@@H](CCC(=O)O)C(=O)O)cc3)c2c(=O)[nH]1 [Pemetrexed] (partner 0.2 µM)
Summed up: as §1

Compound in test [4]: CS(=O)(=O)c1ccc(-c2cnc(N)c(C(=O)Nc3ccccc3)n2)cc1 [VE-821] + O=C(CCCCCCC(=O)Nc1ccccc1)NO [Vorinostat] (partner 1 µM)
Summed up:
as §1

Drawing on the supplement of paper PMC10307832, this text covers relative viability for 5 cell lines.

Regarding CAL-12T, the relative viability in test [1] (first compound 0.253 µM) is 0.509; in test [1] (first compound 0.8 µM), 0.263; in test [1] (first compound 2.53 µM) it was 0.241; in test [1] (first compound 8 µM) it was 0.36; in test [2] (first compound 0.08 µM) it was 0.529; in test [2] (first compound 0.253 µM) it was 0.612. Besides, the relative viability came to 0.489 in test [2] (first compound 0.8 µM); 0.423 in test [2] (first compound 2.53 µM); 0.483 in test [2] (first compound 8 µM); 1.22 in test [3] (first compound 0.08 µM); 1.14 in test [3] (first compound 0.253 µM); 1.04 in test [3] (first compound 0.8 µM). Moreover, the relative viability in test [3] (first compound 2.53 µM) is 1.1; in test [3] (first compound 8 µM), 0.759; in test [4] (first compound 0.08 µM), 0.931; in test [4] (first compound 0.253 µM), 0.762; in test [4] (first compound 0.8 µM) it was 0.826; in test [4] (first compound 2.53 µM), 0.833. Moreover, in test [4] (first compound 8 µM), the relative viability was 0.686.
Consider COR-L23, for which the relative viability in test [1] (first compound 0.08 µM) was 0.803; in test [1] (first compound 0.253 µM) it was 0.658; in test [1] (first compound 0.8 µM), 0.714; in test [1] (first compound 2.53 µM) it was 0.675; in test [1] (first compound 8 µM), 0.786; in test [2] (first compound 0.08 µM) it was 0.9. For the same cell line, the relative viability was determined as 0.751 in test [2] (first compound 0.253 µM); 0.797 in test [2] (first compound 0.8 µM); 0.766 in test [2] (first compound 2.53 µM); 0.63 in test [2] (first compound 8 µM); 0.198 in test [3] (first compound 0.08 µM); 0.211 in test [3] (first compound 0.253 µM). For the same cell line, the relative viability was determined as 0.196 in test [3] (first compound 0.8 µM); 0.197 in test [3] (first compound 2.53 µM); 0.16 in test [3] (first compound 8 µM); 0.418 in test [4] (first compound 0.08 µM); 0.561 in test [4] (first compound 0.253 µM); 0.36 in test [4] (first compound 0.8 µM). Further, the figures for the relative viability in test [4] (first compound 2.53 µM) and in test [4] (first compound 8 µM) were 0.373 and 0.157, respectively.
Turning to COR-L 105, the relative viability was 0.383 in test [1] (first compound 0.08 µM); 0.371 in test [1] (first compound 0.253 µM); 0.445 in test [1] (first compound 0.8 µM); 0.401 in test [1] (first compound 2.53 µM); 0.453 in test [1] (first compound 8 µM); 0.741 in test [2] (first compound 0.08 µM). The relative viability in test [2] (first compound 0.253 µM) came out at 0.551; in test [2] (first compound 0.8 µM), 0.647; in test [2] (first compound 2.53 µM), 0.642; in test [2] (first compound 8 µM), 0.695; in test [3] (first compound 0.08 µM), 1.07; in test [3] (first compound 0.253 µM), 0.965. Also, the relative viability in test [3] (first compound 0.8 µM) is 0.74; in test [3] (first compound 2.53 µM), 1.04; in test [3] (first compound 8 µM), 0.712; in test [4] (first compound 0.08 µM), 0.865; in test [4] (first compound 0.253 µM) it was 0.883; in test [4] (first compound 0.8 µM), 0.638. Besides, the relative viability in test [4] (first compound 2.53 µM) worked out at 0.718; in test [4] (first compound 8 µM), 0.56.
Turning to Calu-6, the relative viability in test [1] (first compound 0.08 µM) is 0.934; in test [1] (first compound 0.253 µM) it was 0.915; in test [1] (first compound 0.8 µM) it was 0.886; in test [1] (first compound 2.53 µM), 0.918; in test [1] (first compound 8 µM), 0.859.
For ChaGo-K-1, the relative viability was 0.784 in test [1] (first compound 0.08 µM); 0.851 in test [1] (first compound 0.253 µM); 0.623 in test [1] (first compound 0.8 µM); 0.666 in test [1] (first compound 2.53 µM); 0.709 in test [1] (first compound 8 µM); 0.624 in test [2] (first compound 0.08 µM). For the same cell line, the relative viability was found to be 0.475 in test [2] (first compound 0.253 µM); 0.669 in test [2] (first compound 0.8 µM); 0.649 in test [2] (first compound 2.53 µM); 0.419 in test [2] (first compound 8 µM); 0.28 in test [3] (first compound 0.08 µM); 0.333 in test [3] (first compound 0.253 µM). Moreover, the relative viability amounted to 0.274 in test [3] (first compound 0.8 µM); 0.261 in test [3] (first compound 2.53 µM); 0.253 in test [3] (first compound 8 µM); 0.769 in test [4] (first compound 0.08 µM); 0.747 in test [4] (first compound 0.253 µM); 0.734 in test [4] (first compound 0.8 µM). Moreover, the results for the relative viability in test [4] (first compound 2.53 µM) and in test [4] (first compound 8 µM) were 0.803 and 0.682, respectively.
